Reference: ChEMBL document CHEMBL1201862, “PubChem BioAssay data set” (2004)
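Briefly, cells in 96-well plates were exposed to five compound concentrations for 48 h, and endpoints were estimated by linear interpolation. Abbreviation: GI50, concentration required for 50% inhibition of growth.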 Active and inactive are the calls of the source. Rule as the data show it: active = GI50 up to about 1.1 µM and inactive = higher.

Assays:
Assay in all cases: NCI tumour cell line growth inhibition, 48 h
[1] = test system: MDA-MB-435
[2] = test system: OVCAR-3
[3] = test system: SK-MEL-2
[4] = test system: SF-268
[5] = test system: SF-539
[6] = test system: Hs-578T
[7] = test system: ACHN
[8] = test system: NCI-H23
[9] = test system: M14
[10] = test system: SF-295
[11] = test system: NCI-H522
[12] = test system: UACC-62
[13] = test system: DU-145
[14] = test system: NCI/ADR-RES
[15] = test system: LOX IMVI
[16] = test system: OVCAR-4
[17] = test system: TK-10
[18] = test system: KM12
[19] = test system: RPMI-8226
[20] = test system: MOLT-4
[21] = test system: CCRF-CEM
[22] = test system: SK-MEL-28
[23] = test system: SK-MEL-5
[24] = test system: HCT-116
[25] = test system: SN12C
[26] = test system: A549
[27] = test system: T47D
[28] = test system: COLO 205
[29] = test system: K562
[30] = test system: UACC-257
[31] = test system: IGROV-1
[32] = test system: U-251
[33] = test system: SNB-75
[34] = test system: HT-29
[35] = test system: SK-OV-3
[36] = test system: SR
[37] = test system: HCT-15
[38] = test system: SW-620
[39] = test system: 786-0
[40] = test system: MDA-MB-231
[41] = test system: BT-549
[42] = test system: PC-3
[43] = test system: UO-31
[44] = test system: CAKI-1
[45] = test system: MDA-N
[46] = test system: A498
[47] = test system: SNB-19
[48] = test system: HCC 2998
[49] = test system: OVCAR-8
[50] = test system: OVCAR-5
[51] = test system: HOP-62
[52] = test system: HOP-92
[53] = test system: NCI-H226
[54] = test system: HL-60
[55] = test system: NCI-H460
[56] = test system: Malme-3M
[57] = test system: EKVX
[58] = test system: MCF7
[59] = test system: RXF 393

O=C1C=CC(=O)c2c1ccc1c3ccccc3n(CCCCCCCCCCCCn3c4ccccc4c4ccc5c(c43)C(=O)C=CC5=O)c21
GI50 [1]: > 100 µM (inactive) | GI50 [2]: > 100 µM (inactive) | GI50 [3]: > 100 µM (inactive) | GI50 [4]: > 100 µM (inactive) | GI50 [5]: > 100 µM (inactive) | GI50 [6]: > 100 µM (inactive) | GI50 [7]: > 100 µM (inactive) | GI50 [8]: > 100 µM (inactive) | GI50 [9]: > 100 µM (inactive) | GI50 [10]: > 100 µM (inactive) | GI50 [11]: > 83.6 µM (inactive) | GI50 [12]: > 100 µM (inactive) | GI50 [13]: > 100 µM (inactive) | GI50 [14]: > 100 µM (inactive) | GI50 [15]: > 100 µM (inactive) | GI50 [16]: > 100 µM (inactive) | GI50 [17]: > 100 µM (inactive) | GI50 [18]: > 100 µM (inactive) | GI50 [19]: > 100 µM (inactive) | GI50 [20]: 49.9 µM (inactive) | GI50 [21]: 26.3 µM (inactive) | GI50 [22]: > 100 µM (inactive) | GI50 [23]: > 100 µM (inactive) | GI50 [24]: > 100 µM (inactive) | GI50 [25]: > 100 µM (inactive) | GI50 [26]: > 100 µM (inactive) | GI50 [27]: > 100 µM (inactive) | GI50 [28]: > 100 µM (inactive) | GI50 [29]: > 72.4 µM (inactive) | GI50 [30]: > 100 µM (inactive) | GI50 [31]: > 100 µM (inactive) | GI50 [32]: > 88.7 µM (inactive) | GI50 [33]: > 100 µM (inactive) | GI50 [34]: > 100 µM (inactive) | GI50 [35]: > 100 µM (inactive) | GI50 [36]: 50.5 µM (inactive) | GI50 [37]: > 100 µM | GI50 [38]: > 100 µM (inactive) | GI50 [39]: > 65.8 µM (inactive) | GI50 [40]: > 100 µM (inactive) | GI50 [41]: > 100 µM (inactive) | GI50 [42]: > 100 µM (inactive) | GI50 [43]: > 100 µM (inactive) | GI50 [44]: > 100 µM (inactive) | GI50 [45]: > 100 µM (inactive) | GI50 [46]: > 100 µM (inactive) | GI50 [47]: > 100 µM (inactive) | GI50 [48]: > 46.5 µM (inactive) | GI50 [49]: > 100 µM (inactive) | GI50 [50]: > 100 µM (inactive) | GI50 [51]: > 85.5 µM (inactive) | GI50 [52]: > 100 µM (inactive) | GI50 [53]: > 100 µM (inactive) | GI50 [54]: 46.7 µM (inactive) | GI50 [55]: > 100 µM (inactive) | GI50 [56]: > 100 µM (inactive) | GI50 [57]: > 100 µM (inactive) | GI50 [58]: > 100 µM (inactive) | GI50 [59]: > 100 µM (inactive)

CC(C)NC(=O)CN1CCN(C2=C(Cl)C(=O)c3c(O)ccc(O)c3C2=O)CC1
GI50 [1]: 1.62 µM (inactive) | GI50 [2]: 1.57 µM (inactive) | GI50 [3]: 1.49 µM (inactive) | GI50 [4]: 1.82 µM (inactive) | GI50 [5]: 1.97 µM (inactive) | GI50 [6]: 2.39 µM (inactive) | GI50 [7]: 2.15 µM (inactive) | GI50 [8]: 1.03 µM (active) | GI50 [9]: 1.46 µM (inactive) | GI50 [10]: 7.1 µM (inactive) | GI50 [11]: 1.9 µM (inactive) | GI50 [12]: 1.73 µM (inactive) | GI50 [13]: 2.71 µM (inactive) | GI50 [14]: 2.38 µM (inactive) | GI50 [15]: 0.65 µM (active) | GI50 [16]: 1.71 µM (inactive) | GI50 [17]: 2.07 µM (inactive) | GI50 [18]: 6.5 µM (inactive) | GI50 [19]: 1.99 µM (inactive) | GI50 [20]: 0.36 µM (active) | GI50 [21]: 0.293 µM (active) | GI50 [22]: 1.66 µM (inactive) | GI50 [23]: 2 µM (inactive) | GI50 [24]: 1.2 µM (inactive) | GI50 [25]: 1.68 µM (inactive) | GI50 [26]: 8.13 µM (inactive) | GI50 [27]: 1.91 µM (inactive) | GI50 [28]: 1.31 µM (inactive) | GI50 [29]: 0.341 µM (active) | GI50 [30]: 1.79 µM (inactive) | GI50 [31]: 2.39 µM (inactive) | GI50 [32]: 3.31 µM (inactive) | GI50 [33]: 3.46 µM (inactive) | GI50 [34]: 1.26 µM (inactive) | GI50 [35]: 10.1 µM (inactive) | GI50 [36]: 0.148 µM (active) | GI50 [37]: 0.693 µM | GI50 [38]: 0.546 µM (active) | GI50 [39]: 2.56 µM (inactive) | GI50 [40]: 1.97 µM (inactive) | GI50 [41]: 1.49 µM (inactive) | GI50 [42]: 1.89 µM (inactive) | GI50 [43]: 1.03 µM (active) | GI50 [44]: 2.17 µM (inactive) | GI50 [45]: 1.49 µM (inactive) | GI50 [46]: 3.05 µM (inactive) | GI50 [47]: 13.6 µM (inactive) | GI50 [48]: 2.92 µM (inactive) | GI50 [49]: 0.861 µM (active) | GI50 [50]: 2.92 µM (inactive) | GI50 [51]: 7.45 µM (inactive) | GI50 [52]: 2.24 µM (inactive) | GI50 [53]: 21.5 µM (inactive) | GI50 [54]: 0.187 µM (active) | GI50 [55]: 7.5 µM (inactive) | GI50 [56]: 1.04 µM (active) | GI50 [57]: 3.72 µM (inactive) | GI50 [58]: 1.49 µM (inactive) | GI50 [59]: 1.54 µM (inactive)
